Active and inactive are the calls of the source. For most assays here, no stated cut-off is given here; in the data, actives have a measured Kd and inactives only a lower limit. Where only a bound is given, the exact number is not on record here.

By Kd is commonly meant the constant that tells how readily two partners part at equilibrium.

Assay [1] concerns the target T1, Peroxisomal acyl-coenzyme A oxidase 1 (Homo sapiens, UniProt Q15067).
T1 sequence (Q15067 whole entry): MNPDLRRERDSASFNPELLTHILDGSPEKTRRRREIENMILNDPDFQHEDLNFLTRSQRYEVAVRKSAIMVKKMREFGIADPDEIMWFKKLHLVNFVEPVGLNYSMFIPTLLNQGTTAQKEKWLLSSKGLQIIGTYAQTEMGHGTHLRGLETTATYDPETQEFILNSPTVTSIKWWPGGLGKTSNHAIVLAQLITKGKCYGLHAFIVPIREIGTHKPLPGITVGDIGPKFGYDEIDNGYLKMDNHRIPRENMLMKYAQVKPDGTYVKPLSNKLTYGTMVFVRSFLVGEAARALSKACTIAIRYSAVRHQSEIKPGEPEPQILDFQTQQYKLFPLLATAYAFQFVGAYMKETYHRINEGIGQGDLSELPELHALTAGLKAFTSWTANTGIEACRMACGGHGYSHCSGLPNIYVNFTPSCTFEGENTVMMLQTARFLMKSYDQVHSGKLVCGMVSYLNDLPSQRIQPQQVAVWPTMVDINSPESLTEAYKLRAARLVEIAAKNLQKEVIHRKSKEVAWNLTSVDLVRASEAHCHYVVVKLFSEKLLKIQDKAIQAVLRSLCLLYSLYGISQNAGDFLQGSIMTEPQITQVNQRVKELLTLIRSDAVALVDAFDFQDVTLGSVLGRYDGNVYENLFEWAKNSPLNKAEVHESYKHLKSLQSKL

In a further assay the target is T2, Activin receptor type-1B (Homo sapiens, UniProt P36896).
T2 sequence (P36896 whole entry): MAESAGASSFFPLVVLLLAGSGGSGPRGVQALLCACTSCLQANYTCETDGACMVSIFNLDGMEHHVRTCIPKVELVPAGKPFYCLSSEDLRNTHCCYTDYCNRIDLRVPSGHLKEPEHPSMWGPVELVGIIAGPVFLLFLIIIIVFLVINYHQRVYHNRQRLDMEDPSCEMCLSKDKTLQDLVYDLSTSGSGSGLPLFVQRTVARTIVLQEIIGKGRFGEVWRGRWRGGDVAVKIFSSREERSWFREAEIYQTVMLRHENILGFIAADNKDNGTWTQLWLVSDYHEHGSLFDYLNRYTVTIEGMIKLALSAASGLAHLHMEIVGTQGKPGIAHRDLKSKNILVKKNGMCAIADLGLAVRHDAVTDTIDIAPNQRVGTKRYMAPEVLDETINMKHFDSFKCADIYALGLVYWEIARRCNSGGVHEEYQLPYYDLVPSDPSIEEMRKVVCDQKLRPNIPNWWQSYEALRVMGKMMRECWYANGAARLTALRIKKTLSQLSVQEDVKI

The target of assay [2] is Casein kinase I isoform delta (Homo sapiens, UniProt P48730).
A further assay addresses T3, Ephrin type-B receptor 3 (Homo sapiens, UniProt P54753).
T3 sequence (P54753 whole entry): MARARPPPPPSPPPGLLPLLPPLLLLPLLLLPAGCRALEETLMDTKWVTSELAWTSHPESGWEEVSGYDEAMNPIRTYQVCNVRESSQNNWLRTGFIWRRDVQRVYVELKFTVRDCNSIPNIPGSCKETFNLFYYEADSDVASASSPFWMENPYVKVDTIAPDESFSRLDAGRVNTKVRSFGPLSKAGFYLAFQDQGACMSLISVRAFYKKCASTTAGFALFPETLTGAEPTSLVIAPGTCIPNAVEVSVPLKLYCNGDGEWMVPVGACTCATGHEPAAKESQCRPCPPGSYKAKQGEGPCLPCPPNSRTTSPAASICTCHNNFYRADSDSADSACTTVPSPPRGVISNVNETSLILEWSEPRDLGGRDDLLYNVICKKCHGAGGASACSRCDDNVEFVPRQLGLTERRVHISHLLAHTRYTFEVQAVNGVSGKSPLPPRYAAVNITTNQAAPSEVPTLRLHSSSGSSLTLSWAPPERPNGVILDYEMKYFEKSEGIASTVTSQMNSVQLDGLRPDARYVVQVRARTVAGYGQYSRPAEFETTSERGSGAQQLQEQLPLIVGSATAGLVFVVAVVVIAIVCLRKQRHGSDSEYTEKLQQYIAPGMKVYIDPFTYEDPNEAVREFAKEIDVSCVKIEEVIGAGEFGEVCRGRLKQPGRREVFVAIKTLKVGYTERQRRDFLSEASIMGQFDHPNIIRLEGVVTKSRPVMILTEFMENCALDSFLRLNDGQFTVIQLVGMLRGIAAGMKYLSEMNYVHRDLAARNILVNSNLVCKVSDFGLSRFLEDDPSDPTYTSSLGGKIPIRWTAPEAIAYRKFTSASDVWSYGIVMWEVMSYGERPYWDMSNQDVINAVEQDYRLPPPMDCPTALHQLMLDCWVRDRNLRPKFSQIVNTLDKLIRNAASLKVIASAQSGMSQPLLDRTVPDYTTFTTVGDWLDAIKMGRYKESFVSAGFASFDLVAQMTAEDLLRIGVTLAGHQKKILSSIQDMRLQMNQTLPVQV

Assay [3] has as its target Tyrosine-protein kinase FRK (Homo sapiens, UniProt P42685).
For assay [4], the target named is Tyrosine-protein kinase HCK (Homo sapiens, UniProt P08631).
A further assay deals with T4, Scaffold protein ILK (Homo sapiens, UniProt Q13418).
T4 sequence (Q13418 whole entry): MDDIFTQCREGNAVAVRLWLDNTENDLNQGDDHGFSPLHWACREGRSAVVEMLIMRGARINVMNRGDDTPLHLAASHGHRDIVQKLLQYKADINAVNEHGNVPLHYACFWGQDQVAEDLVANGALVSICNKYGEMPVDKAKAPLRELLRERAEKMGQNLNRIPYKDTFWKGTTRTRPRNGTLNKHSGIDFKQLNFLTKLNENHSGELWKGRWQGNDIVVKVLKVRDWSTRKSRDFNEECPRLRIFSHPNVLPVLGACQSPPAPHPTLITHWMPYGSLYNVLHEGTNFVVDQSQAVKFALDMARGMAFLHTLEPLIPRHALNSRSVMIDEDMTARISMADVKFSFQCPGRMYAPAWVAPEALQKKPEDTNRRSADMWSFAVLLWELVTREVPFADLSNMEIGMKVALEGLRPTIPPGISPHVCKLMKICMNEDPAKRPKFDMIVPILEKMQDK

The target of assay [5] is Mitogen-activated protein kinase kinase kinase 1 (Homo sapiens, UniProt Q13233).
In assay [6] the target is Ribosomal protein S6 kinase alpha-5 (Homo sapiens, UniProt O75582).
Assay [7] addresses Proto-oncogene tyrosine-protein kinase Src (Homo sapiens, UniProt P12931).

Chain of Tyrosine-protein kinase HCK (P08631 whole entry): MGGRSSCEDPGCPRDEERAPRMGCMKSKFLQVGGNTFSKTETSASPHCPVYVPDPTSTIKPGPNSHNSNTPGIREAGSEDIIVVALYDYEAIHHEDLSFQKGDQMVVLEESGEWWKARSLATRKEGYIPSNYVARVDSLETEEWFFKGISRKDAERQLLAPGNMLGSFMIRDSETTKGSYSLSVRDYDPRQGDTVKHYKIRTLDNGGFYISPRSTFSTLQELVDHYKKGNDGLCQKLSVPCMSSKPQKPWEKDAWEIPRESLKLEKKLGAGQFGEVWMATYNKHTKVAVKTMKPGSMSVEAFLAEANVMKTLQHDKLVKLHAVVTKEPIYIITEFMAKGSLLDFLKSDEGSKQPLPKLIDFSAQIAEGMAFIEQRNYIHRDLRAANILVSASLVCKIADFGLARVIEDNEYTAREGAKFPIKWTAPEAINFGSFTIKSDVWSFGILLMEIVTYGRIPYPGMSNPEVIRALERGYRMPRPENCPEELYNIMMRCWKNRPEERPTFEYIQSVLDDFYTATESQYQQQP
Chain of Tyrosine-protein kinase FRK (P42685 whole entry): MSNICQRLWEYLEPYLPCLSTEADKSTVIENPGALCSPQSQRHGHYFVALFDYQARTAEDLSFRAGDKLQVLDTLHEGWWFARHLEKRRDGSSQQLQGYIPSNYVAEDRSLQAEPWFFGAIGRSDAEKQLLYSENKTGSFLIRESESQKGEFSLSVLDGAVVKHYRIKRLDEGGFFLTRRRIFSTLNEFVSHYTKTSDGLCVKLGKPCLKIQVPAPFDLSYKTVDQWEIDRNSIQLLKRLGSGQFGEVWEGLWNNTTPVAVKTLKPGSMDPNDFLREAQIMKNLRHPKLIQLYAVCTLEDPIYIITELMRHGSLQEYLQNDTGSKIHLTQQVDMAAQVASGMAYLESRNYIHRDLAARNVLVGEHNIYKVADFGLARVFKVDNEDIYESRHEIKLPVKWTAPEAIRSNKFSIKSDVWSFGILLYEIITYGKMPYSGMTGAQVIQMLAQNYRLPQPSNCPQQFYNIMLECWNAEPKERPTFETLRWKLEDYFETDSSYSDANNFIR
Chain of Ribosomal protein S6 kinase alpha-5 (O75582 whole entry): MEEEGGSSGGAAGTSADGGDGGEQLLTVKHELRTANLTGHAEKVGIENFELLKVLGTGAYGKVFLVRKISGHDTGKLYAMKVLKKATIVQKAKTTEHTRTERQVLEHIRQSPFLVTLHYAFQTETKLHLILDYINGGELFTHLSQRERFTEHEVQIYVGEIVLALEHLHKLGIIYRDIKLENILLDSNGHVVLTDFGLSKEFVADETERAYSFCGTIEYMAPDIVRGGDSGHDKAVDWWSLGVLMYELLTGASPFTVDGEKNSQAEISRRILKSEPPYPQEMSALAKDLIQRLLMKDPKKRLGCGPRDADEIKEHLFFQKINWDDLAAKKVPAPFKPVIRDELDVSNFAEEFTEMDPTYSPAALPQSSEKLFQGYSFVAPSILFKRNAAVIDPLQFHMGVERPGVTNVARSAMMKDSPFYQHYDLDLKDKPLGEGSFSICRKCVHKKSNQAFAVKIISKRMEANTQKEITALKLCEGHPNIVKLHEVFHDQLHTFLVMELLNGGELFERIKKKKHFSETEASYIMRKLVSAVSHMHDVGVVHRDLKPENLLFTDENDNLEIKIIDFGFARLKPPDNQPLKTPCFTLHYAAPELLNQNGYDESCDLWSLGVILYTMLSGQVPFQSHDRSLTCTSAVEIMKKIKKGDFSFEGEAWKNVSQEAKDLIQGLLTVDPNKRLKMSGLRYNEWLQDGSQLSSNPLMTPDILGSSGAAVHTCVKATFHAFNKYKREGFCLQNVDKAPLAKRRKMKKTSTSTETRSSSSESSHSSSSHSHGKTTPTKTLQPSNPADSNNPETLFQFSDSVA
Chain of Mitogen-activated protein kinase kinase kinase 1 (Q13233 whole entry): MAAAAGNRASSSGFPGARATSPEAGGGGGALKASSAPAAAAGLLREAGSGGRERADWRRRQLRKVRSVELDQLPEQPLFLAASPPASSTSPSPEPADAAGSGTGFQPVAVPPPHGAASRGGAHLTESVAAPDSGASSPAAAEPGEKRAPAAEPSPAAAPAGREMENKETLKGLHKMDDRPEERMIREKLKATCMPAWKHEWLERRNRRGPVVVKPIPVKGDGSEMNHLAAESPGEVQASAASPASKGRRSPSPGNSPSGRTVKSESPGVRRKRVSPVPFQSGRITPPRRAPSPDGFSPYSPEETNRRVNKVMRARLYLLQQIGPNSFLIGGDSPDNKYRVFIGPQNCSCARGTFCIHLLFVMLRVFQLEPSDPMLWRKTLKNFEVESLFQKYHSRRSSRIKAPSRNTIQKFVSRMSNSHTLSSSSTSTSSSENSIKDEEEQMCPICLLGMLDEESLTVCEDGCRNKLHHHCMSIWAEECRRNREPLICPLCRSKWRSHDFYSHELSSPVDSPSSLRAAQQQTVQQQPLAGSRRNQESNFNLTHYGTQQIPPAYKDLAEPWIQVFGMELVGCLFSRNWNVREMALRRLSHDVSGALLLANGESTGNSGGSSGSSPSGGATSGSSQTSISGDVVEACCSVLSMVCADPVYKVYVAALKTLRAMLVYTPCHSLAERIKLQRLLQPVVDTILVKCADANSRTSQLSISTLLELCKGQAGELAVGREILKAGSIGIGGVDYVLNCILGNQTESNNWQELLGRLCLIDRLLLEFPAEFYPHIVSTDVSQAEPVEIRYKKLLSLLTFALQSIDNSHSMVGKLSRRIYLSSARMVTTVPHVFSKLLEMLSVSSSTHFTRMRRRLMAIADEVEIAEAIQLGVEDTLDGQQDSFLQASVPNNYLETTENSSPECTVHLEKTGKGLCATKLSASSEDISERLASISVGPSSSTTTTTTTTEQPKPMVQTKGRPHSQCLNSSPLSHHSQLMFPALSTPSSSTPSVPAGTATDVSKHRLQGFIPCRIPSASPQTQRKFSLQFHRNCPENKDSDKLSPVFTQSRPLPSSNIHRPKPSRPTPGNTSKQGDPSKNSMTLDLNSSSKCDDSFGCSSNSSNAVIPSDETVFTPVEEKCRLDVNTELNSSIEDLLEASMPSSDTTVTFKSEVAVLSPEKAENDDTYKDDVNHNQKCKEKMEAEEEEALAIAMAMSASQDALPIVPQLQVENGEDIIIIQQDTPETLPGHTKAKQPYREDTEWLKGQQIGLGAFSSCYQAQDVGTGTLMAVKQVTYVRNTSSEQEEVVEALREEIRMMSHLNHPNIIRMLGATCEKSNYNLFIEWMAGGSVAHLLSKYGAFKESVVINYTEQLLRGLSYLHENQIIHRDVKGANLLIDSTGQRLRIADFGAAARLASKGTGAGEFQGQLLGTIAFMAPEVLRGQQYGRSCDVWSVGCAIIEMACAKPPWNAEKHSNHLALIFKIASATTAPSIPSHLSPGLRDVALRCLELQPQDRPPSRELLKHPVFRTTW
Chain of Proto-oncogene tyrosine-protein kinase Src (P12931 2-536 limits assumed): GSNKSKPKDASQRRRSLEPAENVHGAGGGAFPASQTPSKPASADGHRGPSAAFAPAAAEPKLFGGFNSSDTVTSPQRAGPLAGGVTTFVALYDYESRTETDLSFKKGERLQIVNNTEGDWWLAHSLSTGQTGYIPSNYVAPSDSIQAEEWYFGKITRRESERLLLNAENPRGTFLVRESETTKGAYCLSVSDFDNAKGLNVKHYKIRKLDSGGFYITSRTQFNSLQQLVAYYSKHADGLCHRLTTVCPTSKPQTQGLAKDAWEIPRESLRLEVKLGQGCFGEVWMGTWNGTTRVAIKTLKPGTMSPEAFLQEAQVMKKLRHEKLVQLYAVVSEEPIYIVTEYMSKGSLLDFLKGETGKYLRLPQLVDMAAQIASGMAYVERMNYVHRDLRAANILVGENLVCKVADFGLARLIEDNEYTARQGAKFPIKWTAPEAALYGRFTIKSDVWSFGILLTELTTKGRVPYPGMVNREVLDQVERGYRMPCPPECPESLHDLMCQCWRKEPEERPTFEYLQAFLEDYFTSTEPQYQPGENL
Chain of Casein kinase I isoform delta (P48730 whole entry, canonical isoform): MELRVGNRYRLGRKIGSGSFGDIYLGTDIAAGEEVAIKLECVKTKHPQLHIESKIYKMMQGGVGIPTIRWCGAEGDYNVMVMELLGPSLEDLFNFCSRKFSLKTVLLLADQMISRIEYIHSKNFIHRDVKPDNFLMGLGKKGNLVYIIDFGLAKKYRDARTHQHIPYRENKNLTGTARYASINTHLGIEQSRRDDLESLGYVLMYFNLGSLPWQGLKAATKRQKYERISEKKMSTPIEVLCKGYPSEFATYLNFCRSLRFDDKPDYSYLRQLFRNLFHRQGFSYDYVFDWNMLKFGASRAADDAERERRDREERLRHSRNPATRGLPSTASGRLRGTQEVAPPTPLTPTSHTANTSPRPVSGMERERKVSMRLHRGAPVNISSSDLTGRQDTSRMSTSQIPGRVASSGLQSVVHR

`Cc1cnc(NC(=O)Nc2cc(Br)c(C)cc2OC[C@@H]2CNCCO2)cn1` [RABUSERTIB]: the Kd (in [1]; at Activin receptor type-1B; in assay [2]; on Ephrin type-B receptor 3; in [3]; in [4]) was > 30 µM (inactive) each time. In addition, the Kd (on Scaffold protein ILK; in assay [5]; in assay [6]; in assay [7]) was > 30 µM (inactive) each time.
On to `N#CC1(c2ccc(NC(=O)c3cccnc3NCc3ccncc3)cc2)CCCC1` [RIVOCERANIB], for which the Kd (in assay [1]; on Activin receptor type-1B; in assay [2]; on Ephrin type-B receptor 3; in assay [3]; in assay [4]) was > 30 µM (inactive) throughout. Moreover, the Kd (on Scaffold protein ILK; in assay [5]; in [6]; in assay [7]) was > 30 µM (inactive) throughout.
As to `O=c1[nH]ccc2cc(OC3CCNCC3)ccc12` [SAR-407899 FREE BASE], the Kd (in assay [1]; at Activin receptor type-1B; in assay [2]; at Ephrin type-B receptor 3; in assay [3]; in assay [4]) was > 30 µM (inactive) throughout. Besides, the Kd (at Scaffold protein ILK; in assay [5]; in [6]; in [7]) was > 30 µM (inactive) throughout.
For the compound `CO[C@H]1C[C@@H]2CC[C@@H](C)[C@@](O)(O2)C(=O)C(=O)N2CCCC[C@H]2C(=O)O[C@H]([C@H](C)C[C@@H]2CC[C@@H](O)[C@H](OC)C2)CC(=O)[C@H](C)/C=C(\C)[C@@H](O)[C@@H](OC)C(=O)[C@H](C)C[C@H](C)/C=C/C=C/C=C/1C` [SIROLIMUS], the Kd (in [1]; at Activin receptor type-1B; in [2]; on Ephrin type-B receptor 3; in assay [3]; in assay [4]) was > 30 µM (inactive) each time. Besides, the Kd (on Scaffold protein ILK; in assay [5]; in assay [6]; in assay [7]) was > 30 µM (inactive) each time.
Regarding `CO[C@H]1C[C@@H]2CC[C@@H](C)[C@@](O)(O2)C(=O)C(=O)N2CCCC[C@H]2C(=O)O[C@H]([C@H](C)C[C@@H]2CC[C@@H](OC(=O)C(C)(CO)CO)[C@H](OC)C2)CC(=O)[C@H](C)/C=C(\C)[C@@H](O)[C@@H](OC)C(=O)[C@H](C)C[C@H](C)/C=C/C=C/C=C/1C` [TEMSIROLIMUS], the Kd (in assay [1]; on Activin receptor type-1B; in [2]; on Ephrin type-B receptor 3; in [3]; in assay [4]) was > 30 µM (inactive) in each case. Also, the Kd (on Scaffold protein ILK; in assay [5]; in assay [6]; in assay [7]) was > 30 µM (inactive) each time.
With `COc1cc2c(Nc3ccc(Cl)c(Cl)c3F)ncnc2cc1OC[C@@H]1C[C@@H]2CN(C)C[C@@H]2C1` [TESEVATINIB], the Kd in assay [1] was > 30 µM (inactive); on Activin receptor type-1B it was > 30 µM (inactive); in [2], > 30 µM (inactive); at Ephrin type-B receptor 3 it was > 30 µM (inactive); in assay [3], > 30 µM (inactive); in assay [4], 1.16 µM (active). The Kd is > 30 µM (inactive) on Scaffold protein ILK, 1.74 µM (active) in [5], > 30 µM (inactive) in assay [6] and 1.13 µM (active) in [7].
As to `O=C(Cc1ccc(-c2ccc(OCCN3CCOCC3)cc2)cn1)NCc1ccccc1` [TIRBANIBULIN], the Kd (in assay [1]; at Activin receptor type-1B; in assay [2]; at Ephrin type-B receptor 3; in [3]; in [4]) was > 30 µM (inactive) in each case. Further, the Kd (on Scaffold protein ILK; in assay [5]; in [6]; in assay [7]) was > 30 µM (inactive) in each case.
As for `Cn1ncc(Cl)c1-c1cc(C(=O)N[C@H](CN)Cc2ccc(F)c(F)c2)oc1Cl` [UPROSERTIB], the Kd (in assay [1]; at Activin receptor type-1B; in [2]; at Ephrin type-B receptor 3; in assay [3]; in assay [4]) was > 30 µM (inactive) each time. The Kd (on Scaffold protein ILK; in assay [5]; in assay [6]; in assay [7]) was > 30 µM (inactive) in each case.
On to `CC(C)c1cc(CNc2nc(Nc3cc(C4CC4)[nH]n3)cc(N3CCN(C)CC3)n2)on1` [XL-228], for which the Kd in [1] is > 30 µM (inactive); on Activin receptor type-1B it was > 30 µM (inactive); in [2], > 30 µM (inactive); at Ephrin type-B receptor 3 it was > 30 µM (inactive); in assay [3], > 30 µM (inactive); in [4], 6.39 µM (active). The Kd on Scaffold protein ILK was > 30 µM (inactive); in [5], > 30 µM (inactive); in assay [6] it was > 30 µM (inactive); in assay [7], 0.459 µM (active).

For the origin of these results see ChEMBL document CHEMBL3991601, “The target landscape of clinical kinase drugs” (Science, 2017).
